Molecules are shown by their SMILES.

The test has as its target MAPK14 (human) (UniProt Q16539). In words: Apoptotic Activity (Eosinophils). The settings on record: concentration not given here.

Sequence of MAPK14 (human) (Q16539 whole entry, looked up): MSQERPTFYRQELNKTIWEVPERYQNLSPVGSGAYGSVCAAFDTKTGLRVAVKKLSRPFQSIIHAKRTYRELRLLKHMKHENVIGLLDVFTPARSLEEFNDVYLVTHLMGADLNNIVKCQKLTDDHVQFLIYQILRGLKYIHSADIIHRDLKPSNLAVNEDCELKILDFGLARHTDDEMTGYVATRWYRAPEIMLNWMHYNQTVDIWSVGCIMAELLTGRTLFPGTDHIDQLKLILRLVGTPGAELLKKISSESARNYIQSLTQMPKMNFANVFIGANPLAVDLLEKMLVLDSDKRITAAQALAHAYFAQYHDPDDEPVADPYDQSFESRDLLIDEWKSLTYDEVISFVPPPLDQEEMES

`CC(C(=O)O)c1ccc(-c2ccccc2)c(F)c1` (stereo not drawn) registered an apoptosis of 32.5%.
Turning to `COc1ccc2c(c1)c(CC(=O)O)c(C)n2C(=O)c1ccc(Cl)cc1`, the apoptosis was 27.7%.
`CS(=O)(=O)Nc1cc2c(cc1-c1ccc(F)c(S)c1F)C(=O)CC2`: the apoptosis amounted to 28.9%.
